Where a name gives a salt, the structure may show the parent alone.
Legend:
eNOS promoter = assay: Activation of eNOS transcription (eNOS promoter-luciferase reporter gene assay); assay type: cell-based; conditions: human endothelial cell line stably transfected with eNOS promoter-luciferase construct; 18 h incubation; EC50 determined graphically; read-out: EC50 values of transcription induction ratios (TIR)
Description: Activation of eNOS transcription was measured as described in detail by Li et al., “Activation of protein kinase C alpha and/or epsilon enhances transcription of the human endothelial nitric oxide synthase gene”, Mol. Pharmacol. 53 (1998) 630. Briefly, a 3.5 kB long fragment 5′ of the starting codon of the eNOS gene was cloned, sequenced and cloned in firefly luciferase expression plasmids to monitor activation of the eNOS promoter by reporter gene activity. A human endothelial cell line stable transfected and expressing this promoter-reporter construct was used for compound testing. Cells were incubated for 18 h with the compounds.
All compounds were dissolved in sterile dimethyl sulfoxide (DMSO). A final concentration of 0.5% DMSO in complete medium was allowed. Induction of reporter gene expression in these cells was measured using a standard luciferase assay system (Promega, Cat. No. E150) according to the manufacturer's instructions. Luciferase induction in cells incubated with compounds were compared to those incubated with solvent alone. The ratio of both activities (transcription induction ratio, TIR) was plotted as a function of compound concentration. Typically, TIR values started at low concentrations at a ratio of 1, indicating no compound effect, and extended up to a maximum TIR value TIR(max) which indicates the increase of the eNOS transcription. EC50 values of transcription induction ratios as a function of compound concentration were determined graphically.

Structure (SMILES)	EC50 (eNOS promoter) [nM]	melting point [°C]
O=C1CNC(=O)N1C1CC1c1ccc(-c2ccc(F)c(Cl)c2)nc1 (racemic) [Example 21, 3-((E)-2-(6-(3-Chloro-4-fluorophenyl)pyridin-3-yl)cyclopropyl)imidazolidine-2,4-dione]	< 500	172
O=C1CCCC(=O)N1CC#Cc1ccc(-c2ccccc2F)nc1 [Example 2, 1-(3-(6-(2-Fluorophenyl)pyridin-3-yl)prop-2-ynyl)piperidine-2,6-dione trifluoroacetic acid salt]	500 to 5000	–
O=c1ccccn1C/C=C/c1nc(-c2ccc(F)cc2)cs1 [Example 3, 1-(3-(4-(4-Fluorophenyl)thiazol-2-yl)allyl)-1H-pyridin-2-one]	500 to 5000	–
CC1(C)NC(=O)N(C/C=C/c2ccc(-c3ccc(F)cc3)nc2)C1=O [Example 11, 3-(3-(6-(4-Fluorophenyl)pyridin-3-yl)allyl)-5,5-dimethylimidazolidine-2,4-dione trifluoroacetic acid salt]	500 to 5000	–
